Experimental data reported in US11976069B2, “Inhibitors of histone deacetylase useful for the treatment or prevention of HIV infection” (Merck Sharp & Dohme LLC, priority 2019, dated 2024).
Read-outs that look alike come from different tables or passages of the source.

Biological target: T1, HDAC8 (Homo sapiens, UniProt Q9BY41)
T1 construct: purchased Enzo Life Sciences (Farmingdale, N.Y.) BMIL-SE145-0100
T1 sequence (Q9BY41 1-377): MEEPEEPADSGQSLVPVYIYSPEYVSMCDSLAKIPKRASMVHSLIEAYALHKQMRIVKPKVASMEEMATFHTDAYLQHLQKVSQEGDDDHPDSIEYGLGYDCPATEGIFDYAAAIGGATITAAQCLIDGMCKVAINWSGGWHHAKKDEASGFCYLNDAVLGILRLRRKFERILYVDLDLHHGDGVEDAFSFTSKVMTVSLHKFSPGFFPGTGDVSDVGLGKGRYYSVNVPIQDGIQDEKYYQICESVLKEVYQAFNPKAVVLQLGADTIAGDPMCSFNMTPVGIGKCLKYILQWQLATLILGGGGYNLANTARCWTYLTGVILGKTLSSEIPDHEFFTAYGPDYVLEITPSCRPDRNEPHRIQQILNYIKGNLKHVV
Test: HDAC8 inhibition, modified Fluor-de-Lys assay
Format: biochemical
Conditions: 3 h pre-incubation, 200 μM substrate BML-KI178, read-out: HDAC-8 IC50
Text: Human HDAC Enzyme Inhibitor FLUOR-DE-LYS Assay Materials
Recombinant human HDAC8 (catalog number BMIL-SE145-0100) and HDAC10 (catalog number BML-SE559-0050) enzymes, HIDAC substrates BML-KI104 and BML-K1178, and HLDAC developer solutions BMIL-KI105 and BML-K1176 were purchased from Enzo Life Sciences (Farmingdale, N.Y.). Recombinant human HDAC5 and HDAC11 were purchased from BPS Bioscience (San Diego, Calif.)(catalog numbers 50045 and 50021). Substrate Boc-Lys(TFA)-AMC was obtained from Bachem (Bupendorf, Switzerland) (catalog number 1-1985). HDAC inhibitor suberoylanilide hydroxamic acid (SAHA) was obtained from Indofine (Hillsborough Township, N.J.) and trichostatin A (TSA) was obtained from Sigma-Aldrich (St. Louis, Mo.). […] HEPES pH 8.0 was obtained from Boston BioProducts (Ashland, Mass.), Tween-20 from Fisher Scientific (Hampton, N.H.) (catalog number BP337), TCEP from Calbiochem and 7.5% bovine serum albumin (BSA) from Life Technologies (Carlsbad, Calif.) (catalog number 15260037). 384-well, black assay plates were obtained from Corning (Corning, N.Y.) (catalog number 3575).
The histone deacetylase activities of HDAC1, HDAC2, HDAC3, HDAC6, and HDAC8 were measured in modified Fluor-de-Lys assays in 384-well format. In this assay, HDAC enzymes are initially incubated with an ε-acetyl (or -trifluoroacetyl)-L-lysine-containing substrate with a C-terminal amide having aminomethylcoumarin as the amine component. HDACs cleave the ε-acetyl group, rendering the resulting product susceptible to AMC cleavage by trypsin. The released AMC is then detected by its fluorescence.
The HDAC 1, 2 assays employed buffer A, which contained 20 mM HEPES, pH 8.0, 1 mM MgCl2, 137 mM NaCl, 2.7 mM KCl, 0.05% BSA. The HDAC3/SMRT assay employed buffer B, consisting of 20 mM HEPES, pH 8.0, 1 mM MgCl2, 50 mM NaCl, 2.7 mM KCl, 0.05% BSA, 0.005% Tween 20, and 10 μM IP4. The HDAC6 assay employed buffer C, consisting of 20 mM HEPES, pH 8.0, 1 mM MgCl2, 137 mM NaCl, 2.7 mM KCl, 0.5 mM TCEP (Calbiochem) and 0.05% BSA. The HDAC8 assay employed buffer D, consisting of 20 mM HEPES, pH 8.0, 1 mM MgCl2, 100 mM NaCl, 20 mM KCl, 0.1% n-octyl-β-D-glucoside (Anatrace, Maumee, Ohio) and 0.05% BSA. All steps were performed at room temperature (23° C.). The assay was performed by pre-incubating serial dilutions of test compounds with the target HDAC prior to initiation with substrate. Each compound was titrated in a 10-point dose response, using a 1:3 fold dilution scheme, with 0.15 ul of solution added by ECHO555 to the plate, followed by the addition of 20 μl of the appropriate HDAC isoform diluted in appropriate assay buffer. […] Final conditions used for each assay were: 1. HDAC 1, 0.3 nM total enzyme, 20 μM substrate BML-KI104; 2. HDAC 2, 1.5 nM total enzyme, 40 μM substrate BML-KI104; 3. HDAC 3/SMRT, 0.3 nM total enzyme, 20 μM substrate BML-KI104; 4. HDAC 6, 1.3 nM total enzyme, 2.5 μM substrate BML-KI104; 5. HDAC 8, 1.3 nM total enzyme, 200 μM substrate BML-KI178; the final high dose of test compound was 30 μM. For potent compounds, 900 nM was used as the final high dose. The reactions were stopped and developed by addition of 30 ul of HDAC developer solution containing a saturating level of HDAC inhibitor as follows: 1.

Compound	IC50 (1.3 nM enzyme) [nM]	IC50 ([…] enzyme) [nM]
CCC(=O)CCCCC[C@H](NC(=O)[C@H]1CC12CCN(CC)CC2)c1[nH]c2nc1C(=O)NCCC/C=C\c1cccc-2c1 [Compound 14, (1S)-6-ethyl-N-{(1S)-7-oxo-1-[(11Z)-6-oxo-3,7,18-triazatricyclo[11.3.1.1~2,5~]octadeca-1(17),2(18),4,11,13,15-hexaen-4-yl]nonyl}-6-azaspiro[2.5]octane-1-carboxamide]	> 900	–
CCC(=O)CCCCC[C@H](NC(=O)[C@H]1CC12CCN(CC)CC2)c1[nH]c2nc1C(=O)NCCC/C=C/c1cccc-2c1 [Compound 15, (1S)-6-ethyl-N-{(1S)-7-oxo-1-[(11E)-6-oxo-3,7,18-triazatricyclo[11.3.1.1~2,5~]octadeca-1(17),2(18),4,11,13,15-hexaen-4-yl]nonyl}-6-azaspiro[2.5]octane-1-carboxamide]	> 900	–
(11S,4S)-4-(6-oxooctyl)-61,62-dihydro-3-aza-5(2,5)-oxazola-6(6,1)-quinolina-12(4,1)-piperidina-1(1,2)-cyclopropanadodecaphane-62,2-dione [Compound 8]	–	> 900
CCC(=O)CCCCCC1NC(=O)C2CC2N2CCC(CCCCCn3c(=O)ccc4cc(ccc43)-c3cnc1o3)CC2 [Compound 7, (11S,4S)-4-(6-oxooctyl)-61,62-dihydro-3-aza-5(2,5)-oxazola-6(6,1)-quinolina-12(4,1)-piperidina-1(1,2)-cyclopropanadodecaphane-62,2-dione]	–	> 900
CCC(=O)CCCCC[C@@H]1NC(=O)[C@H]2CC23CCN(CCCOCCCn2ccc4cc(ccc4c2=O)-c2cnc1[nH]2)CC3 [Compound 12, (3S,6S)-6-(6-oxooctyl)-22-oxa-5,8,18,26,33-pentaazahexacyclo[24.2.2.1˜7,10˜0.1˜11,15˜0.1˜14,18˜0.0˜1,3˜]tritriaconta-7,9,11(32),12,14,16-hexaene-4,31-dione]	–	808
